Test results as given in patent US10173983B2, “Fungicidal pyridylamidines” (Syngenta Participations AG, priority 2014, dated 2019).

Experiments:
Type in all cases: in vivo
[1] = tested on: Puccinia recondita f. sp. tritici; assay: Puccinia recondita f. sp. tritici / wheat / leaf disc preventative (brown rust); details: foliar, 168 h, wheat leaf segments cv. Kanzler, inoculated 1 day after application, assessed 7-9 days after application, compared to untreated, read-out: disease control
Procedure: Puccinia recondita f. sp. tritici/Wheat/Leaf Disc Preventative (Brown Rust) Wheat leaf segments cv. Kanzler were placed on agar in multiwell plates (24-well format) and sprayed with the formulated test compound diluted in water. The leaf disks were inoculated with a spore suspension of the fungus 1 day after application. The inoculated leaf segments were incubated at 19° C. and 75% rh under a light regime of 12 h light/12 h darkness in a climate cabinet and the activity of a compound was assessed as percent disease control compared to untreated when an appropriate level of disease damage appears in untreated check leaf segments (7-9 days after application). The following compounds gave at 200 ppm gave at least 80% disease control in this test when compared to untreated control leaf disks under the same conditions, which show extensive disease development: […]

Phakopsora pachyrhizi = Phakopsora pachyrhizi on soybean, preventive treatment; details: 264 h, 1 day preventive, triazole tolerant soybean rust strain, evaluated 11 days after application, compared to untreated, read-out: disease control
Procedure: Phakopsora pachyrhizi on Soybean, Preventive Treatment
The compound activity was tested under 1 day preventive conditions. Soybean plants with a fully enfolded first trifoliate leaf were sprayed with a track sprayer and 50 l/ha spray volume with the test compounds, either solo or in tankmix as shown in the table below. 1 day after application leaf discs were cut from the first trifoliate leaf and placed in multiwell plates on water-agar. 5 leaf discs per treatment where infested with spores of a triazole tolerant soybean rust strain. The multiwell plates where sealed and placed in an incubator 48 h in darkness and 12 h light/dark cycle afterwards. Rust infestation on leaf discs was evaluated visually 11 days after application and average activity calculated in relation to disease severity on untreated check leaf discs.
The following compounds gave at 200 ppm gave at least 80% disease control in this test when compared to untreated control leaf disks under the same conditions, which show extensive disease development: […]

[2] = tested on: Blumeria graminis f. Sp. tritici (Erysiphe graminis f. sp. tritici); assay: Blumeria graminis f. sp. tritici / wheat / leaf disc preventative (powdery mildew on wheat); details: foliar, wheat leaf segments cv. Kanzler, inoculated 1 day after application, assessed 6-8 days after application, compared to untreated, read-out: disease control
Procedure: Blumeria graminis f. Sp. tritici (Erysiphe graminis f. sp. tritici)/Wheat/Leaf Disc Preventative (Powdery Mildew on Wheat) Wheat leaf segments cv. Kanzler were placed on agar in a multiwell plate (24-well format) and sprayed with the formulated test compound diluted in water. The leaf disks were inoculated by shaking powdery mildew infected plants above the test plates 1 day after application. The inoculated leaf disks were incubated at 20° C. and 60% rh under a light regime of 24 h darkness followed by 12 h light/12 h darkness in a climate chamber and the activity of a compound was assessed as percent disease control compared to untreated when an appropriate level of disease damage appears on untreated check leaf segments (6-8 days after application). The following compounds gave at 200 ppm give at least 80% disease control in this test when compared to untreated control leaf disks under the same conditions, which show extensive disease development: […]

[3] = tested on: Puccinia recondita f. sp. tritici; assay: Puccinia recondita f. sp. tritici / wheat / leaf disc curative (brown rust); details: foliar, wheat leaf segments cv. Kanzler, compound applied 1 day after inoculation, assessed 6-8 days after application, compared to untreated, read-out: disease control
Procedure: Puccinia recondita f. sp. tritici/Wheat/Leaf Disc Curative (Brown Rust) Wheat leaf segments cv. Kanzler are placed on agar in multiwell plates (24-well format). The leaf segments are inoculated with a spore suspension of the fungus. Plates were stored in darkness at 19° C. and 75% rh. The formulated test compound diluted in water was applied 1 day after inoculation. The leaf segments were incubated at 19° C. and 75% rh under a light regime of 12 h light/12 h darkness in a climate cabinet and the activity of a compound was assessed as percent disease control compared to untreated when an appropriate level of disease damage appears in untreated check leaf segments (6-8 days after application). The following compounds gave at 200 ppm gave at least 80% disease control in this test when compared to untreated control leaf disks under the same conditions, which show extensive disease development: […]

Measured: pest or weed control at 200 ppm

CCCOCC(C)Oc1nc(C)c(/N=C/N(C)CC)cc1Cl (stereo not drawn) [Q.015, N′-[5-chloro-2-methyl-6-(1-methyl-2-propoxy-ethoxy)-3-pyridyl]-N-ethyl-N-methyl-formamidine]
≥ 80%: all assays above

C=CCOCC(COC)Oc1nc(C)c(N=CN(C)CC)cc1Br (stereo not drawn) [Q.016, N′-[6-[1-(allyloxymethyl)-2-methoxy-ethoxy]-5-bromo-2-methyl-3-pyridyl]-N-ethyl-N-methyl-formamidine]
≥ 80%: all assays above

C=CCOCC(C)Oc1nc(C)c(N=CN(C)CC)cc1C#N (stereo not drawn) [Q.017, N′-[6-(2-allyloxy-1-methyl-ethoxy)-5-cyano-2-methyl-3-pyridyl]-N-ethyl-N-methyl-formamidine]
≥ 80%: all assays above

CCCOCC(C)Oc1nc(C)c(N=CN(C)C(C)C)cc1Br (stereo not drawn) [Q.018, N′-[5-bromo-2-methyl-6-(1-methyl-2-propoxy-ethoxy)-3-pyridyl]-N-isopropyl-N-methyl-formamidine]
≥ 80%: all assays above

CCN(C)C=Nc1cc(C#N)c(OC(C)COc2cccc(C(F)(F)F)c2)nc1C (stereo not drawn) [Q.020, N′-[5-cyano-2-methyl-6-[1-methyl-2-[3-(trifluoromethyl)phenoxy]ethoxy]-3-pyridyl]-N-ethyl-N-methyl-formamidine]
≥ 80%: all assays above

CCN(C)C=Nc1cc(Cl)c(OC(C)COc2cccc(C(F)(F)F)c2)nc1C (stereo not drawn) [Q.023, N′-[5-chloro-2-methyl-6-[1-methyl-2-[3-(trifluoromethyl)phenoxy]ethoxy]-3-pyridyl]-N-ethyl-N-methyl-formamidine]
≥ 80%: all assays above

CCN(C)C=Nc1cc(Cl)c(OC(C)COc2ccc(Cl)cc2)nc1C (stereo not drawn) [Q.024, N′-[5-chloro-6-[2-(4-chlorophenoxy)-1-methyl-ethoxy]-2-methyl-3-pyridyl]-N-ethyl-N-methyl-formamidine]
≥ 80%: all assays above

CCN(C)C=Nc1cc(Cl)c(OC(C)COc2ccccc2)nc1C (stereo not drawn) [Q.025, N′-[5-chloro-2-methyl-6-(1-methyl-2-phenoxy-ethoxy)-3-pyridyl]-N-ethyl-N-methyl-formamidine]
≥ 80%: all assays above

CCN(C)C=Nc1cc(Br)c(OC(C)COc2ccc(Cl)cc2)nc1C (stereo not drawn) [Q.026, N′-[5-bromo-6-[2-(4-chlorophenoxy)-1-methyl-ethoxy]-2-methyl-3-pyridyl]-N-ethyl-N-methyl-formamidine]
≥ 80%: all assays above

CCN(C)C=Nc1cc(Br)c(OC(C)COc2ccccc2)nc1C (stereo not drawn) [Q.028, N′-[5-bromo-2-methyl-6-(1-methyl-2-phenoxy-ethoxy)-3-pyridyl]-N-ethyl-N-methyl-formamidine]
≥ 80%: all assays above

CCCOCC(C)Oc1nc(C)c(N=CN(C)C2CC2)cc1Br (stereo not drawn) [Q.029, N′-[5-bromo-2-methyl-6-(1-methyl-2-propoxy-ethoxy)-3-pyridyl]-N-cyclopropyl-N-methyl-formamidine]
≥ 80%: all assays above

CCCOCC(C)Oc1nc(C)c(N=CN2CCC2)cc1Br (stereo not drawn) [Q.030, 1-(azetidin-1-yl)-N-[5-bromo-2-methyl-6-(1-methyl-2-propoxy-ethoxy)-3-pyridyl]methanimine]
≥ 80%: all assays above
